Source: paper PMC5116089, “Sulfheme formation during homocysteine S-oxygenation by catalase in cancers and neurodegenerative diseases” (Nature Communications, 2016)

What was measured:
[1] = target: T1, Bovine liver catalase (Bos taurus, UniProt P00432); experiment: Comparative kinetic studies by ultraviolet-visible spectroscopy (compound II and Fe(II) sulfonium formation); assay type: biochemical; conditions: CAT + 2 mM HCys, 1 mM DTPA, pH 7.4, with the additive named (dimedone 4 mM, BCN 0.1 mM, SOD 40 U)
T1 construct: Bovine liver catalase was also purchased from Sigma-Aldrich; purchased Sigma-Aldrich; host or cells: bovine liver
T1 sequence (P00432 2-527 limits assumed): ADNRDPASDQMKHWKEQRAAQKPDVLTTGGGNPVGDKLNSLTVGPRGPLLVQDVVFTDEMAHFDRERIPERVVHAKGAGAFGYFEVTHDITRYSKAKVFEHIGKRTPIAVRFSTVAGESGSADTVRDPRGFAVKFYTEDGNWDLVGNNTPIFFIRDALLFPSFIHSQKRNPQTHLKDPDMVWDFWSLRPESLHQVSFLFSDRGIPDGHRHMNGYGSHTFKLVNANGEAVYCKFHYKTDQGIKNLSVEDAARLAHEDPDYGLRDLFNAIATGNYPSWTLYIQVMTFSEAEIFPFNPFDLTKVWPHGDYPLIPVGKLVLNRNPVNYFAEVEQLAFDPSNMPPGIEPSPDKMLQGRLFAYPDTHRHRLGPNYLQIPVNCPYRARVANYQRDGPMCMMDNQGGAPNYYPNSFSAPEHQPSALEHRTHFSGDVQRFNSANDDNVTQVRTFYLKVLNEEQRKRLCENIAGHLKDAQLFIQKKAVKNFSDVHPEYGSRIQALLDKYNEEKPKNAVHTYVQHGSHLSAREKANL
Method: Ultraviolet–visible spectra were recorded on a Cary 300 Scan or an Uvikon 941 spectrophotometer equipped with a temperature equilibrating water bath (±1 °C). Spectral changes over time were recorded when CAT was incubated with L-HCys (0.2 or 2 mM), L-Cys (0.2, 2 or 9 mM) or GSH (1 or 30 mM) at 25 °C in a 1 ml quartz cuvette containing a solution of CAT (2.7–5.9 μM) in 50 mM KPi, pH 7.4±1 mM DTPA. Due to half-site reactivity of biological thiols with CAT, the data were recorded versus a blank containing half the concentrations of CAT used in the experiments, that is, a solution of 1.35–2.95 μM CAT in 50 mM KPi at pH 7.4±1 mM DTPA. Reactions were initiated by addition of the thiol-containing compounds. Comparative kinetic studies were performed by incubating CAT ([…] in the experiment, 1.35–1.5 μM in the blank) with 2 mM L-HCys in 50 mM KPi, pH 7.4, 1 mM DTPA with or without […], 5,5-dimethyl-1,3-cyclohexanedione (dimedone, 4 mM), BCN (0.1 mM) or SOD, 40 U). All the experiments were performed at least in duplicate.

[2] = test system: HT-29 Glc−/+ cells; experiment: H2O2 consumption in cell lysates as a function of NaSH concentration; assay type: biochemical, human; conditions: HT-29 Glc−/+ cell lysate (control line); read-out: relative IC50 (rate of H2O2 consumption)
Method: CAT activity was measured on an Uvikon 941 spectrophotometer equipped with a temperature controlled water bath (±1 °C) by following the disappearance of H2O2 at 240 nm over 30–120 s at 25 °C. Catalase activity was calculated based on the rate of decomposition of hydrogen peroxide, which is proportional to the reduction of the absorbance at 240 nm. Experiments were carried out in a 3 ml quartz cuvette containing 11.7 mM H2O2 in 50 mM KPi, pH 7.4±1 mM DTPA and the reaction was initiated by adding 0.3–0.6 pmoles of CAT. The effect of biological thiols on the activity of CAT under physiological conditions was determined from a solution of CAT (30–60 nM) preincubated at 25 °C for at least 120 min as a function thiol concentration (0–40 mM for HCys and Cys, 0–100 mM for GSH) in 50 mM KPi, pH 7.4, 1 mM DTPA. Control experiments (biological thiols alone) were also performed in parallel. In each case, 10 μl of the reaction mixture (biological thiols±CAT) was added to the cuvette containing the H2O2 solution to initiate the reaction. Similarly, the effect of biological thiols on the activity of CAT under pathological conditions was determined from a solution of CAT (30–60 nM) containing a 2.124±0.386 molar excess of iron that was preincubated with various concentrations of thiols (0–1 mM) for at least 120 min at 25 °C in 50 mM KP at pH 7.4. The relative half inhibitory concentration (IC50) values were obtained by plotting the relative activity of CAT (A, in per cent) as a function of the concentration of thiol-compounds (RSH) and by fitting the data with the following four parameter logistic equation: A=Amin+(Amax−Amin)/(1+([RSH]/IC50)^n), where Amax is the maximal activity of CAT (constrained at 100%), Amin is the minimum activity achieved at saturating concentration of RSH and n is the Hillslope that characterizes the slope of the curve at its midpoint. The inactivation rate (kinact, min^−1) was extracted from the time course of the inactivation of CAT bioactivity using a fixed concentration of HCys. Accordingly, a solution of CAT (3.5–5 μM) was incubated with 2 mM L-HCys in 50 mM KPi, pH 7.4, 1 mM DTPA. Aliquots (10 μl) were taken at intervals (0–480 min), diluted 1:50 in 50 mM KPi, pH 7.4, 1 mM DTPA and assayed for CAT activity as described above. […] The effect of NaSH on the consumption of H2O2 in cell lysates was determined from a solution of cell lysates (0.5–3 mg ml^−1) incubated on ice with various concentrations of NaSH (0–200 μM). […]

| SMILES | Ultraviolet–visible spectroscopy kobs(6) (CAT–Fe(IV)=O formation) [1] | IC50 [2] |
| --- | --- | --- |
| NC(CCS)C(=O)O (centres unmarked) [HCys, homocysteine] | 0.026 ± 0.003 min⁻¹ | – |
| [Na+].[SH-] [NaSH] | – | 15 ± 5.3 µM |
